Legend:
[1] = test system: CYPES: yellow nutsedge (Cyperus esculentus); test: Post-Emergent Test II herbicidal activity; type: in vivo; details: post-emergence, 336 h, 14 days, read-out: Visual Growth Reduction (%) 14 Days After Application CYPES; for pest or weed control at 35 g/ha: 35 g ai/ha; for pest or weed control at 70 g/ha: 70 g ai/ha; for pest or weed control at 140 g/ha: 140 g ai/ha
Summary of the method: (§1)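 Greenhouse post-emergence spray, 1st–2nd true leaf stage. Track sprayer, 187 L/ha, acetone/DMSO/IPA/crop oil/Triton formulation; 1×, ½×, ¼×, ⅛×, 1/16× rates. Subirrigated; % injury vs untreated, 14 d.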

[2] = test system: HELAN: sunflower (Helianthus annuus); test: Post-Emergent Test II herbicidal activity; type: in vivo; details: post-emergence, 336 h, 14 days, read-out: Visual Growth Reduction (%) 14 Days After Application HELAN; for pest or weed control at 35 g/ha: 35 g ai/ha; for pest or weed control at 70 g/ha: 70 g ai/ha; for pest or weed control at 140 g/ha: 140 g ai/ha
Summary of the method: as §1

[3] = test system: EPHHL: wild poinsettia (Euphorbia heterophylla); test: Post-Emergent Test II herbicidal activity; type: in vivo; details: post-emergence, 336 h, 14 days, read-out: Visual Growth Reduction (%) 14 Days After Application EPHHL; for pest or weed control at 35 g/ha: 35 g ai/ha; for pest or weed control at 70 g/ha: 70 g ai/ha; for pest or weed control at 140 g/ha: 140 g ai/ha
Summary of the method: as §1

[4] = test system: CHEAL: lambsquarters (Chenopodium album); test: Post-Emergent Test II herbicidal activity; type: in vivo; details: post-emergence, 336 h, 14 days, read-out: Visual Growth Reduction (%) 14 Days After Application CHEAL; for pest or weed control at 35 g/ha: 35 g ai/ha; for pest or weed control at 70 g/ha: 70 g ai/ha; for pest or weed control at 140 g/ha: 140 g ai/ha
Summary of the method: as §1

[5] = test system: ECHCG: barnyardgrass (Echinochloa crus-galli); test: Post-Emergent Test II herbicidal activity; type: in vivo; details: post-emergence, 336 h, 14 days, read-out: Visual Growth Reduction (%) 14 Days After Application ECHCG; for pest or weed control at 35 g/ha: 35 g ai/ha; for pest or weed control at 70 g/ha: 70 g ai/ha; for pest or weed control at 140 g/ha: 140 g ai/ha
Summary of the method: as §1

[6] = test system: TRZAS: wheat, spring (Triticum aestivum); test: Post-Emergent Test II herbicidal activity; type: in vivo; details: post-emergence, 336 h, 14 days, read-out: Visual Growth Reduction (%) 14 Days After Application TRZAS; for pest or weed control at 35 g/ha: 35 g ai/ha; for pest or weed control at 70 g/ha: 70 g ai/ha; for pest or weed control at 140 g/ha: 140 g ai/ha
Summary of the method: as §1

[7] = test system: ORYSA: rice (Oryza sativa); test: Post-Emergent Test II herbicidal activity; type: in vivo; details: post-emergence, 336 h, 14 days, read-out: Visual Growth Reduction (%) 14 Days After Application ORYSA; for pest or weed control at 35 g/ha: 35 g ai/ha; for pest or weed control at 70 g/ha: 70 g ai/ha; for pest or weed control at 140 g/ha: 140 g ai/ha
Summary of the method: as §1

[8] = test system: BRSNN: oilseed rape, canola (Brassica napus); test: Post-Emergent Test II herbicidal activity; type: in vivo; details: post-emergence, 336 h, 14 days, read-out: Visual Growth Reduction (%) 14 Days After Application BRSNN; for pest or weed control at 35 g/ha: 35 g ai/ha; for pest or weed control at 70 g/ha: 70 g ai/ha; for pest or weed control at 140 g/ha: 140 g ai/ha
Summary of the method: as §1

[9] = test system: ABUTH: velvetleaf (Abutilon theophrasti); test: Post-Emergent Test II herbicidal activity; type: in vivo; details: post-emergence, 336 h, 14 days, read-out: Visual Growth Reduction (%) 14 Days After Application ABUTH; for pest or weed control at 35 g/ha: 35 g ai/ha; for pest or weed control at 70 g/ha: 70 g ai/ha; for pest or weed control at 140 g/ha: 140 g ai/ha
Summary of the method: as §1

[10] = test system: AMARE: redroot pigweed (Amaranthus retroflexus); test: Post-Emergent Test II herbicidal activity; type: in vivo; details: post-emergence, 336 h, 14 days, read-out: Visual Growth Reduction (%) 14 Days After Application AMARE; for pest or weed control at 35 g/ha: 35 g ai/ha; for pest or weed control at 70 g/ha: 70 g ai/ha; for pest or weed control at 140 g/ha: 140 g ai/ha
Summary of the method: as §1

[11] = test system: ZEAMX: maize, corn (Zea mays); test: Post-Emergent Test II herbicidal activity; type: in vivo; details: post-emergence, 336 h, 14 days, read-out: Visual Growth Reduction (%) 14 Days After Application ZEAMX; for pest or weed control at 35 g/ha: 35 g ai/ha; for pest or weed control at 70 g/ha: 70 g ai/ha; for pest or weed control at 140 g/ha: 140 g ai/ha
Summary of the method: as §1

[12] = test system: SETFA: giant foxtail (Setaria faberi); test: Post-Emergent Test II herbicidal activity; type: in vivo; details: post-emergence, 336 h, 14 days, read-out: Visual Growth Reduction (%) 14 Days After Application SETFA; for pest or weed control at 35 g/ha: 35 g ai/ha; for pest or weed control at 70 g/ha: 70 g ai/ha; for pest or weed control at 140 g/ha: 140 g ai/ha
Summary of the method: as §1

SMILES	pest or weed control at 35 g/ha [1]	pest or weed control at 70 g/ha [1]	pest or weed control at 140 g/ha [1]	pest or weed control at 35 g/ha [2]	pest or weed control at 70 g/ha [2]	pest or weed control at 140 g/ha [2]	pest or weed control at 35 g/ha [3]	pest or weed control at 70 g/ha [3]	pest or weed control at 140 g/ha [3]	pest or weed control at 35 g/ha [4]	pest or weed control at 70 g/ha [4]	pest or weed control at 140 g/ha [4]	pest or weed control at 35 g/ha [5]	pest or weed control at 70 g/ha [5]	pest or weed control at 140 g/ha [5]	pest or weed control at 35 g/ha [6]	pest or weed control at 70 g/ha [6]	pest or weed control at 140 g/ha [6]	pest or weed control at 35 g/ha [7]	pest or weed control at 70 g/ha [7]	also measured
COC(=O)c1nc(-c2cc3nonc3cc2Cl)cc(N)c1Cl [Compound 8]	0 to 29%	0 to 29%	0 to 29%	0 to 29%	0 to 29%	0 to 29%	0 to 29%	0 to 29%	0 to 29%	0 to 29%	0 to 29%	0 to 29%	0 to 29%	0 to 29%	0 to 29%	0 to 29%	0 to 29%	0 to 29%	0 to 29%	0 to 29%	pest or weed control at 140 g/ha [7]: 0 to 29%; pest or weed control at 35 g/ha [8]: 0 to 29%; pest or weed control at 70 g/ha [8]: 0 to 29%; pest or weed control at 140 g/ha [8]: 30 to 44%; pest or weed control at 35 g/ha [9]: 0 to 29%; pest or weed control at 70 g/ha [9]: 0 to 29%; pest or weed control at 140 g/ha [9]: 0 to 29%; pest or weed control at 35 g/ha [10]: 0 to 29%; pest or weed control at 70 g/ha [10]: 0 to 29%; pest or weed control at 140 g/ha [10]: 0 to 29%; pest or weed control at 35 g/ha [11]: 0 to 29%; pest or weed control at 70 g/ha [11]: 0 to 29%; pest or weed control at 140 g/ha [11]: 0 to 29%; pest or weed control at 35 g/ha [12]: 0 to 29%; pest or weed control at 70 g/ha [12]: 0 to 29%; pest or weed control at 140 g/ha [12]: 0 to 29%; melting point: 224 to 226 °C
COC(=O)c1nc(-c2ccc3nsnc3c2)c(F)c(N)c1Cl [Compound 11]	95 to 100%	95 to 100%	95 to 100%	85 to 94%	85 to 94%	95 to 100%	95 to 100%	95 to 100%	95 to 100%	85 to 94%	95 to 100%	95 to 100%	85 to 94%	95 to 100%	95 to 100%	0 to 29%	0 to 29%	0 to 29%	0 to 29%	0 to 29%	pest or weed control at 140 g/ha [7]: 0 to 29%; pest or weed control at 35 g/ha [8]: 60 to 74%; pest or weed control at 70 g/ha [8]: 75 to 84%; pest or weed control at 140 g/ha [8]: 75 to 84%; pest or weed control at 35 g/ha [9]: 85 to 94%; pest or weed control at 70 g/ha [9]: 95 to 100%; pest or weed control at 140 g/ha [9]: 95 to 100%; pest or weed control at 35 g/ha [10]: 95 to 100%; pest or weed control at 70 g/ha [10]: 95 to 100%; pest or weed control at 140 g/ha [10]: 95 to 100%; pest or weed control at 35 g/ha [11]: 60 to 74%; pest or weed control at 70 g/ha [11]: 60 to 74%; pest or weed control at 140 g/ha [11]: 75 to 84%; pest or weed control at 35 g/ha [12]: 45 to 59%; pest or weed control at 70 g/ha [12]: 85 to 94%; pest or weed control at 140 g/ha [12]: 85 to 94%; melting point: 196 to 198 °C
COC(=O)c1nc(-c2cc3nsnc3cc2F)cc(N)c1Cl [Compound 13]	0 to 29%	0 to 29%	30 to 44%	30 to 44%	60 to 74%	75 to 84%	95 to 100%	95 to 100%	95 to 100%	85 to 94%	95 to 100%	95 to 100%	75 to 84%	85 to 94%	85 to 94%	0 to 29%	0 to 29%	0 to 29%	0 to 29%	30 to 44%	pest or weed control at 140 g/ha [7]: 30 to 44%; pest or weed control at 35 g/ha [8]: 95 to 100%; pest or weed control at 70 g/ha [8]: 95 to 100%; pest or weed control at 140 g/ha [8]: 95 to 100%; pest or weed control at 35 g/ha [9]: 75 to 84%; pest or weed control at 70 g/ha [9]: 85 to 94%; pest or weed control at 140 g/ha [9]: 85 to 94%; pest or weed control at 35 g/ha [10]: 95 to 100%; pest or weed control at 70 g/ha [10]: 95 to 100%; pest or weed control at 140 g/ha [10]: 95 to 100%; pest or weed control at 35 g/ha [11]: 60 to 74%; pest or weed control at 70 g/ha [11]: 75 to 84%; pest or weed control at 140 g/ha [11]: 85 to 94%; pest or weed control at 35 g/ha [12]: 60 to 74%; pest or weed control at 70 g/ha [12]: 60 to 74%; pest or weed control at 140 g/ha [12]: 85 to 94%; melting point: 218 to 220 °C

From patent publication US9006250B2, “4-amino-6-(heterocyclic)picolinates and 6-amino-2-(heterocyclic)pyrimidine-4-carboxylates and their use as herbicides” (Dow AgroSciences, LLC, priority 2013, dated 2015)
